# Laboratory results reported in paper PMC8537180, “Discovery of a Kojibiose Hydrolase by Analysis of Specificity-Determining Correlated Positions in Glycoside Hydrolase Family 65” (Molecules, 2021).
# Where two headings read alike, the source gives them in different places.
# Assays:
# [1] = molecular target: T1, MiGP (Mageeibacillus indolicus, UniProt D3R1R5); experiment: phosphomolybdate assay and HPAEC-PAD, synthesis direction; type: biochemical; conditions: acceptor, minor activity; donor 10 mM βGlc1P; 50 mM MOPS pH 7.0
# T1 construct: gene HMPREF0868_0806; codon-optimized gene in pET21a, C-terminal His6-tag, expressed in E. coli BL21(DE3) agp-, Ni-NTA purified; GH65 subgroup 6
# T1 sequence (D3R1R5 1-712): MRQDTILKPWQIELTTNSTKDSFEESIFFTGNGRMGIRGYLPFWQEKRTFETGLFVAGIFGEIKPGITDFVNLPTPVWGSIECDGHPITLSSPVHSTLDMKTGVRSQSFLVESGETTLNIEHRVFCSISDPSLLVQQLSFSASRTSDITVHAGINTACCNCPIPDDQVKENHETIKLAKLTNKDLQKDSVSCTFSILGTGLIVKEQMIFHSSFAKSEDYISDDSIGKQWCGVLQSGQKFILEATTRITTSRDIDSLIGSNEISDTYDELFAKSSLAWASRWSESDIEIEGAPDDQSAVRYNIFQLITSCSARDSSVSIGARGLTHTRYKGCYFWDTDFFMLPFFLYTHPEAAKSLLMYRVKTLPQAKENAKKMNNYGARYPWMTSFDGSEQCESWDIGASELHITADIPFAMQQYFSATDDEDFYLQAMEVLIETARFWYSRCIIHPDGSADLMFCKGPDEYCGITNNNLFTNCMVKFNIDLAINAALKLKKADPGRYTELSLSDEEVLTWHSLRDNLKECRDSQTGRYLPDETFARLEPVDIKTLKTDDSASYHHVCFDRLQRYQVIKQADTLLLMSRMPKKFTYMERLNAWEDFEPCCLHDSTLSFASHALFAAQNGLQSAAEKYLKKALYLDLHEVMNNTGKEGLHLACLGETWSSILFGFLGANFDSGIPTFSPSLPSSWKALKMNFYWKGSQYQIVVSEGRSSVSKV
# [2] = molecular target: T2, TbGP (Thermobispora bispora, UniProt D6Y6U5); experiment: as above; type: biochemical; conditions: 50 mM MOPS pH 7.0, trehalose formed
# T2 construct: gene Tbis_2887; codon-optimized gene in pET21a, C-terminal His6-tag, expressed in E. coli BL21(DE3) agp-, Ni-NTA purified; GH65 subgroup 1
# T2 sequence (D6Y6U5 entry or part of it): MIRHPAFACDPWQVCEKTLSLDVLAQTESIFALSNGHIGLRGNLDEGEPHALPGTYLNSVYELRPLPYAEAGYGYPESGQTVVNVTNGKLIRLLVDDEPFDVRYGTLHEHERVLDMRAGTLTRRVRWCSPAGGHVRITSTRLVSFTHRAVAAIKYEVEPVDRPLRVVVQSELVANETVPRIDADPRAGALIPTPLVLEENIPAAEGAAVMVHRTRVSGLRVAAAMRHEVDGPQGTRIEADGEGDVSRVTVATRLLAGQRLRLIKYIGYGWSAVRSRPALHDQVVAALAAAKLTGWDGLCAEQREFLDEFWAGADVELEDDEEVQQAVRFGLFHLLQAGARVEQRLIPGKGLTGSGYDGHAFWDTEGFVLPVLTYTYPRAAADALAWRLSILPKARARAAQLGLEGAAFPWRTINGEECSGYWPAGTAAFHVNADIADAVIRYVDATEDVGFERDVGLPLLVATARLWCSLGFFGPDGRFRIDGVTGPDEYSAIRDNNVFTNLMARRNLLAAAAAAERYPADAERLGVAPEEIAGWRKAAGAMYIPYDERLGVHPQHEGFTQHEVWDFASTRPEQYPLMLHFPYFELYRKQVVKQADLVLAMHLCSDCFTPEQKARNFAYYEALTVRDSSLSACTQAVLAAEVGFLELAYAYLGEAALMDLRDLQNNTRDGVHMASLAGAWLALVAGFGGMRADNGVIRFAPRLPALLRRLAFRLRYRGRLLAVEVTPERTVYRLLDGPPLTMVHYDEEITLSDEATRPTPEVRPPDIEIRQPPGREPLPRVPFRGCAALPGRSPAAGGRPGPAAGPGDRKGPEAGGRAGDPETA
# [3] = molecular target: T3, CaGP (Caldithrix abyssi, UniProt H1XSN4); experiment: as above; type: biochemical; conditions: 50 mM MOPS pH 7.0
# T3 construct: gene Calab_2975; codon-optimized gene in pET21a, C-terminal His6-tag, expressed in E. coli BL21(DE3) agp-, Ni-NTA purified; GH65 subgroup 22
# T3 sequence (H1XSN4 entry or part of it): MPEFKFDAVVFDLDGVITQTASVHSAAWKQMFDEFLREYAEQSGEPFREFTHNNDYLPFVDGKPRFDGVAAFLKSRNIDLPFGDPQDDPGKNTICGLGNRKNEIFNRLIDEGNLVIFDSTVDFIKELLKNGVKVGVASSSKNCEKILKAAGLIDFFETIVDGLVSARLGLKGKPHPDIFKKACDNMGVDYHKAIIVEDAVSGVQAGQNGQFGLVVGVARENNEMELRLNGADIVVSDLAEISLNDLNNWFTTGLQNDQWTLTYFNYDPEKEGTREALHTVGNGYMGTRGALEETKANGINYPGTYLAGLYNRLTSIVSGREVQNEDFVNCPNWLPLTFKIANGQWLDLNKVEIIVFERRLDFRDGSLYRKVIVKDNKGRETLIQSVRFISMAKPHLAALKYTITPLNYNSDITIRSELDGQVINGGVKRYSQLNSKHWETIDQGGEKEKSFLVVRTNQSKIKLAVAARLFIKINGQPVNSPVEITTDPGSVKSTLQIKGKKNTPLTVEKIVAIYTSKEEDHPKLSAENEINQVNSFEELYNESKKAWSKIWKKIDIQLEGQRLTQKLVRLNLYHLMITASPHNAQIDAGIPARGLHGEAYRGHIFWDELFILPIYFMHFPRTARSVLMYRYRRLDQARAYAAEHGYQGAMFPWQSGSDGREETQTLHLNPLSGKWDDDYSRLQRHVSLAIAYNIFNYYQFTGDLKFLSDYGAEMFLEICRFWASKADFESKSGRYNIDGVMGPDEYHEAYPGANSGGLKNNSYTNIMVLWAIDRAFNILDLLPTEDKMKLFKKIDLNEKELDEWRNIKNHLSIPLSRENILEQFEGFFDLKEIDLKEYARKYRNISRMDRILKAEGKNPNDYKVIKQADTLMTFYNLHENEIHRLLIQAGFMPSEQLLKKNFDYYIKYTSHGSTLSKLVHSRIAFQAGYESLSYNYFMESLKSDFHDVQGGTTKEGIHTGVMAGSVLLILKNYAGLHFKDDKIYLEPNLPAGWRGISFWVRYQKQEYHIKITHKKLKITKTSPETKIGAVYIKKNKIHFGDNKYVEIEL
# [4] = molecular target: T4, HoGP (Halothermothrix orenii, UniProt B8D049); conditions: 50 mM MOPS pH 7.0
# T4 construct: gene Hore_00420
# T4 sequence (B8D049 whole entry): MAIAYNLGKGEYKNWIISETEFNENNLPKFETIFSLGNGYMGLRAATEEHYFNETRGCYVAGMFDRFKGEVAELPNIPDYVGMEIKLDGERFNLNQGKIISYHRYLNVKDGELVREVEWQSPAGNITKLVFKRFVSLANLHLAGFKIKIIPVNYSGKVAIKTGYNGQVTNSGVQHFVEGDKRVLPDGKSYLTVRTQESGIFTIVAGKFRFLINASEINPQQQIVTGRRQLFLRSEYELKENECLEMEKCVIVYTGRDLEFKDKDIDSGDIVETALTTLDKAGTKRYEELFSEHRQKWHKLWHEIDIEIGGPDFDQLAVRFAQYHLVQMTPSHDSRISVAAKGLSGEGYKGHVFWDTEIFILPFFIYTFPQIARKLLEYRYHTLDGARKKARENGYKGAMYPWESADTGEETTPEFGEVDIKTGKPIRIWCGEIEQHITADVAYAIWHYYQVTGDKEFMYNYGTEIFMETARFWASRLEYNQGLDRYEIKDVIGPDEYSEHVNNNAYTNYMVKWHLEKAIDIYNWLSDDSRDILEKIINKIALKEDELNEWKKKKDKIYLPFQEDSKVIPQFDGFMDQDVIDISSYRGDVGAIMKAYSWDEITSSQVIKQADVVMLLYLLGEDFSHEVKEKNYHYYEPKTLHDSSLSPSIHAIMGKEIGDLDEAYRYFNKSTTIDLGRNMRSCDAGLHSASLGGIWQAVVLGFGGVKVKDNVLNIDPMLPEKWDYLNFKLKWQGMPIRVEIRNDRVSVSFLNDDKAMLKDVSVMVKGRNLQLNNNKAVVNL
# [5] = molecular target: T5, ChGP (Caldicellulosiruptor hydrothermalis, UniProt E4Q9G1); experiment: phosphomolybdate assay and HPAEC-PAD, synthesis direction; type: biochemical; conditions: acceptor; donor βGlc1P; 50 mM MOPS pH 7.0
# T5 construct: gene Calhy_0070; codon-optimized gene in pET21a, C-terminal His6-tag, expressed in E. coli BL21(DE3) agp-, Ni-NTA purified; GH65 subgroup 4
# T5 sequence (E4Q9G1 entry or part of it): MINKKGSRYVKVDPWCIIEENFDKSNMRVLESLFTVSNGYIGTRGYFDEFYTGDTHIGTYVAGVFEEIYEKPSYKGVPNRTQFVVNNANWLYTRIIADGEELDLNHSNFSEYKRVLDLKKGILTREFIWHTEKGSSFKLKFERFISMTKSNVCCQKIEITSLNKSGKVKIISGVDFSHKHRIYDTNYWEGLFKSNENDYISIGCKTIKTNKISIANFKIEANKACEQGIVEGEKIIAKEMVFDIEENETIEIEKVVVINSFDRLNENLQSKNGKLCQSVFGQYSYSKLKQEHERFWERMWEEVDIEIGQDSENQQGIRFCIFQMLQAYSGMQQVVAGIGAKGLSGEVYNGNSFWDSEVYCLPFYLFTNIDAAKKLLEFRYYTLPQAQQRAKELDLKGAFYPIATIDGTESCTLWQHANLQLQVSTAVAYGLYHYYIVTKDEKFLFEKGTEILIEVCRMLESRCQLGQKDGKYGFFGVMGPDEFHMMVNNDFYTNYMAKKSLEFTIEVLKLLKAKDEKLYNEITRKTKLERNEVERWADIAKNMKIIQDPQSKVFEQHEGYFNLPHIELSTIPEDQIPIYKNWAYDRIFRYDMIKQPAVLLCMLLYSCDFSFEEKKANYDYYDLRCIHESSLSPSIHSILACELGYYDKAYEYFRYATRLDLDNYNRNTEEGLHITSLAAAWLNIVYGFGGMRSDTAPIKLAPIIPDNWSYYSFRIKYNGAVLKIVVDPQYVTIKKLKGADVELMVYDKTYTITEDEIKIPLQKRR
compound,measurement,setting,value
OC[C@H]1OC(O)[C@H](O)[C@@H](O)[C@@H]1O (some centres unmarked) [glucose],"phosphomolybdate assay and HPAEC-PAD, synthesis direction",[1],"Apart from minor activity on glucose and galactose, MiGP prefers α-glucosidic disaccharides"
same,"phosphomolybdate assay and HPAEC-PAD, synthesis direction",[2]; donor βGlc1P,"In a reaction mixture of glucose and βGlc1P, TbGP produced trehalose"
O=P(O)(O)O[C@@H]1O[C@H](CO)[C@@H](O)[C@H](O)[C@H]1O [βGlc1P],"phosphomolybdate assay and HPAEC-PAD, synthesis direction",[3]; acceptor glucose 6-phosphate,trehalose 6-phosphate was produced from βGlc1P and glucose 6-phosphate
same,"phosphomolybdate assay and HPAEC-PAD, synthesis direction",[4]; acceptor kojibiose,"In a reaction mixture that contained both kojibiose and βGlc1P, phosphorolytic and synthetic reactions co-occur"
same,"phosphomolybdate assay and HPAEC-PAD, synthesis direction",[2]; acceptor glucose,"In a reaction mixture of glucose and βGlc1P, TbGP produced trehalose"
OC[C@H]1O[C@H](O[C@H]2[C@H](O)[C@@H](CO)OC(O)[C@@H]2O)[C@H](O)[C@@H](O)[C@@H]1O (some centres unmarked) [nigerose],"phosphomolybdate assay and HPAEC-PAD, synthesis direction",[5],"ChGP elongated nigerose, and other disaccharides, to form α-1,3-oligoglucans"
O=P(O)(O)OC[C@H]1OC(O)[C@H](O)[C@@H](O)[C@@H]1O (some centres unmarked) [glucose 6-phosphate],"phosphomolybdate assay and HPAEC-PAD, synthesis direction",[3]; donor βGlc1P,trehalose 6-phosphate was produced from βGlc1P and glucose 6-phosphate
OC[C@H]1O[C@H](O[C@H]2C(O)O[C@H](CO)[C@@H](O)[C@@H]2O)[C@H](O)[C@@H](O)[C@@H]1O (some centres unmarked) [kojibiose],"phosphomolybdate assay and HPAEC-PAD, synthesis direction",[4]; phosphorolysis and acceptor with βGlc1P,both breaking kojibiose down to glucose and βGlc1P and using it as acceptor
